Assays:
[1] = test system: SW948 cells; experiment: SW948 colon tumor xenograft study with IMC-C225, CPT-11 and RT; type: in vivo, athymic nude mice; settings: s.c. SW948 tumors, n=7/group, RT 3 Gy q6d
[2] = test system: MiaPaCa-2 cells; experiment: In vitro cell proliferation, MiaPaCa-2; type: cell-based, human
Text: (§1) Various combinations of treatment modality were studied in vitro.

[3] = test system: MiaPaCa-2 cells; experiment: Apoptotic cell death in vitro (annexin V-FITC), MiaPaCa-2; type: cell-based, human; settings: MiaPaCa-2, p-value<0.05; not enhanced by any other treatment
Text: Early stages of apoptosis were identified using an annexin V-FITC apoptosis detection kit (BioVision Research Products, Palo Alto, Calif.). In studies of radiation cell survival assays, survival data was fitted to the linear quadratic (LQ) and single hit multi-target (SHMT) radiobiological models using Fit v. 2.4 software kindly provided by Dr. N. Albright, University of California at San Francisco.
as §1

[4] = test system: BxPC-3 cells; experiment: In vitro cell proliferation, BxPC-3; type: cell-based, human
[5] = test system: Mia-PaCa-2 human pancreatic cancer cells; experiment: MiaPaCa-2 xenograft tumor therapy study with IMC-C225, gemcitabine and radiation; type: in vivo, athymic nude mice; settings: s.c. Mia-PaCa-2 tumors, n=8/group, RT 3 Gy q6d
Description: Athymic nude mice were implanted subcutaneously with 2×10^7 Mia-PaCa-2 cells mixed with Matrigel.
MiaPaCa-2 cells were mixed with Matrigel (1:1) and 2×10^7 cells injected s.c. into athymic nude mice on day 0. […] Four groups of mice received gemcitabine (120 mg/kg) i.v. on days 23, 29, 35, 41, 47, and 54. In four groups of mice, tumors were exposed to six fractions of 3 Gy ^60Co radiation on days 24, 30, 36, 42, 48, and 55. The results are presented as the change in tumor size relative to baseline size on day 22. The MiaPaCa-2 experiment was terminated after 333 days.
In the animal model tumor therapy studies, multiple endpoints were examined and appropriate statistical tests were conducted to address differences between treatment groups with respect to each endpoint. The endpoints included, the size of the tumor, which was computed for each tumor at each time period, percent of original tumor size, computed for each tumor at each time point after baseline, regression, time to regression, and time that the tumor size reached twice the original tumor size (time to double). Inferences are made on the true median rather than the mean response, i.e. median tumor size or median time to double in size.

CCc1c2c(nc3ccc(OC(=O)N4CCC(N5CCCCC5)CC4)cc13)-c1cc3c(c(=O)n1C2)COC(=O)[C@]3(O)CC [CPT-11, irinotecan]
mean tumor size doubling time ([1]; IMC-C225 1 mg q3d×12, CPT-11 33 mg/kg q4d): 57 days | complete tumor regressions ([1]; IMC-C225 1 mg q3d×12 i.p., CPT-11 33 mg/kg i.v. q4d, regressions/animals): 0/7

Nc1ccn([C@@H]2O[C@H](CO)[C@@H](O)C2(F)F)c(=O)n1 [gemcitabine]
cell proliferation, combination of radiation (3 Gy) and gemcitabine ([2]; MiaPaCa-2): decrease in cell proliferation | inhibition of cell growth ([2]; MiaPaCa-2, 24 h exposure to the IC50 dose of gemcitabine): approximately 45% | apoptotic cell death [3]: small but significant increase | cell proliferation, combination of radiation (3 Gy) and gemcitabine ([4]; BxPC-3): decrease in cell proliferation | inhibition of cell growth ([4]; BxPC-3, 24 h exposure to the IC50 dose of gemcitabine): approximately 55% | mean tumor size doubling time ([5]; IMC-C225 1 mg q3d×12, GEM 120 mg/kg q6d): 22 days | complete tumor regressions ([5]; IMC-C225 1 mg q3d×12 i.p., GEM 120 mg/kg q6d, regressions/animals): 0/8

Source: patent publication US20050281814A1, “Combination radiation therapy and chemotherapy in conjunction with administration of growth factor receptor antibody” (priority 2000, published 2005)
